Data taken from BindingDB's records for doi:10.1016/j.bmcl.2009.09.123 (Genomics Institute of The Novartis Research Foundation, 2009).

Key:
[1] = Inhibition of Tel-fused LYN expressed in mouse BAF3 cells
[2] = Inhibition of Tel-fused LCK expressed in mouse BAF3 cells
[3] = Inhibition of Tel-fused SRC expressed in mouse BAF3 cells
[4] = Inhibition of Tel-fused KDR expressed in mouse BAF3 cells

| SMILES | IC50 [1] | IC50 [2] | IC50 [3] | IC50 [4] |
| --- | --- | --- | --- | --- |
| Cc1ccc(C(=O)Nc2cccc(C(F)(F)F)c2)cc1Nc1nc2ccccc2n1-c1cc(NCCN2CCN(C)CC2)ncn1 [4-methyl-3-(1-(6-(2-(4-methylpiperazin-1-yl)ethylamino)pyrimidin-4-yl)-1H-benzo[d]imidazol-2-ylamino)-N-(3-(trifluoromethyl)phenyl)benzamide] | 113 nM | 45 nM | 527 nM | 185 nM |
| Cc1cccc(NC(=O)c2ccc(C)c(Nc3nc4ccccc4n3-c3cc(NCCN4CCN(C)CC4)ncn3)c2)c1 [4-methyl-3-(1-(6-(2-(4-methylpiperazin-1-yl)ethylamino)pyrimidin-4-yl)-1H-benzo[d]imidazol-2-ylamino)-N-m-tolylbenzamide] | 1660 nM | 762 nM | 1540 nM | 2090 nM |
| Cc1ccc(C(=O)Nc2cccc(C(F)(F)F)c2)cc1Nc1nc2ccccc2n1-c1cc(NCCCN2CCN(C)CC2)ncn1 [4-methyl-3-(1-(6-(3-(4-methylpiperazin-1-yl)propylamino)pyrimidin-4-yl)-1H-benzo[d]imidazol-2-ylamino)-N-(3-(trifluoromethyl)phenyl)benzamide] | 84 nM | 23 nM | 364 nM | 117 nM |
| Cc1cccc(NC(=O)c2ccc(C)c(Nc3nc4ccccc4n3-c3cc(NCCCN4CCN(C)CC4)ncn3)c2)c1 [4-methyl-3-(1-(6-(3-(4-methylpiperazin-1-yl)propylamino)pyrimidin-4-yl)-1H-benzo[d]imidazol-2-ylamino)-N-m-tolylbenzamide] | 1230 nM | 337 nM | 1410 nM | 1110 nM |
| CCN(CC)CCNc1cc(-n2c(Nc3cc(NC(=O)c4cccc(C(F)(F)F)c4)ccc3C)nc3ccccc32)ncn1 [N-(3-(1-(6-(2-(diethylamino)ethylamino)pyrimidin-4-yl)-1H-benzo[d]imidazol-2-ylamino)-4-methylphenyl)-3-(trifluoromethyl)benzamide] | 642 nM | 418 nM | 398 nM | 1730 nM |
| Cc1ccc(NC(=O)c2cccc(C(F)(F)F)c2)cc1Nc1nc2ccccc2n1-c1cc(NCCN)ncn1 [N-(3-(1-(6-(2-aminoethylamino)pyrimidin-4-yl)-1H-benzo[d]imidazol-2-ylamino)-4-methylphenyl)-3-(trifluoromethyl)benzamide] | 1470 nM | 470 nM | 1290 nM | 1750 nM |
| Cc1ccc(NC(=O)c2cccc(C(F)(F)F)c2)cc1Nc1nc2ccccc2n1-c1cc(NCCO)ncn1 [N-(3-(1-(6-(2-hydroxyethylamino)pyrimidin-4-yl)-1H-benzo[d]imidazol-2-ylamino)-4-methylphenyl)-3-(trifluoromethyl)benzamide] | 400 nM | 229 nM | 1700 nM | 590 nM |
| Cc1ccc(NC(=O)c2cccc(C(F)(F)F)c2)cc1Nc1nc2ccccc2n1-c1cc(NCCCN)ncn1 [N-(3-(1-(6-(3-aminopropylamino)pyrimidin-4-yl)-1H-benzo[d]imidazol-2-ylamino)-4-methylphenyl)-3-(trifluoromethyl)benzamide] | 1120 nM | 387 nM | 1320 nM | 1470 nM |
| Cc1ccc(NC(=O)c2cccc(C(F)(F)F)c2)cc1Nc1nc2ccccc2n1-c1cc(NCCCCN(C)C)ncn1 [N-(3-(1-(6-(4-(dimethylamino)butylamino)pyrimidin-4-yl)-1H-benzo[d]imidazol-2-ylamino)-4-methylphenyl)-3-(trifluoromethyl)benzamide] | 399 nM | 108 nM | 1210 nM | 1360 nM |
| Cc1ccc(NC(=O)c2cccc(C(F)(F)F)c2)cc1Nc1nc2ccccc2n1-c1cc(NCCCCN)ncn1 [N-(3-(1-(6-(4-aminobutylamino)pyrimidin-4-yl)-1H-benzo[d]imidazol-2-ylamino)-4-methylphenyl)-3-(trifluoromethyl)benzamide] | 457 nM | 366 nM | 1660 nM | 599 nM |
| Cc1ccc(NC(=O)c2cccc(C(F)(F)F)c2)cc1Nc1nc2ccccc2n1-c1cc(N[C@H]2CC[C@H](N)CC2)ncn1 [N-(3-(1-(6-(trans-4-aminocyclohexylamino)pyrimidin-4-yl)-1H-benzo[d]imidazol-2-ylamino)-4-methylphenyl)-3-(trifluoromethyl)benzamide] | 547 nM | 392 nM | 739 nM | 609 nM |
| Cc1ccc(NC(=O)c2cc(CN3CCN(C)CC3)n(C(C)(C)C)n2)cc1Nc1nc2ccccc2n1-c1cc(N)ncn1 [N-(3-(1-(6-aminopyrimidin-4-yl)-1H-benzo[d]imidazol-2-ylamino)-4-methylphenyl)-1-tert-butyl-5-((4-methylpiperazin-1-yl)methyl)-1H-pyrazole-3-carboxamide] | 88 nM | 18 nM | 249 nM | 63 nM |
| Cc1ccc(NC(=O)c2cc(Cl)cc(Cl)c2)cc1Nc1nc2ccccc2n1-c1cc(N)ncn1 [N-(3-(1-(6-aminopyrimidin-4-yl)-1H-benzo[d]imidazol-2-ylamino)-4-methylphenyl)-3,5-dichlorobenzamide] | 3610 nM | 1070 nM | 9690 nM | 6360 nM |
| Cc1ccc(NC(=O)c2cc(OC3CCN(C)CC3)cc(C(F)(F)F)c2)cc1Nc1nc2ccccc2n1-c1cc(N)ncn1 [N-(3-(1-(6-aminopyrimidin-4-yl)-1H-benzo[d]imidazol-2-ylamino)-4-methylphenyl)-3-(1-methylpiperidin-4-yloxy)-5-(trifluoromethyl)benzamide] | 5 nM | 7 nM | 39 nM | 66 nM |
| CCN1CCN(c2cc(C(=O)Nc3ccc(C)c(Nc4nc5ccccc5n4-c4cc(N)ncn4)c3)cc(C(F)(F)F)c2)CC1 [N-(3-(1-(6-aminopyrimidin-4-yl)-1H-benzo[d]imidazol-2-ylamino)-4-methylphenyl)-3-(4-ethylpiperazin-1-yl)-5-(trifluoromethyl)benzamide] | 9 nM | 4 nM | 57 nM | 5 nM |
| Cc1ccc(NC(=O)c2cc(N3CCN(C)CC3)cc(C(F)(F)F)c2)cc1Nc1nc2ccccc2n1-c1cc(N)ncn1 [N-(3-(1-(6-aminopyrimidin-4-yl)-1H-benzo[d]imidazol-2-ylamino)-4-methylphenyl)-3-(4-methylpiperazin-1-yl)-5-(trifluoromethyl)benzamide] | 6 nM | 3 nM | 47 nM | 43 nM |
| Cc1ccc(NC(=O)c2cccc(C(F)(F)F)c2)cc1Nc1nc2ccccc2n1-c1cc(N)ncn1 [N-(3-(1-(6-aminopyrimidin-4-yl)-1H-benzo[d]imidazol-2-ylamino)-4-methylphenyl)-3-(trifluoromethyl)benzamide] | 14 nM | 7 nM | 78 nM | 36 nM |
| CCN1CCN(Cc2ccc(C(=O)Nc3ccc(C)c(Nc4nc5ccccc5n4-c4cc(N)ncn4)c3)cc2Cl)CC1 [N-(3-(1-(6-aminopyrimidin-4-yl)-1H-benzo[d]imidazol-2-ylamino)-4-methylphenyl)-3-chloro-4-((4-ethylpiperazin-1-yl)methyl)benzamide] | 10 nM | 5 nM | 47 nM | 30 nM |
| Cc1ccc(NC(=O)c2cc(C3CC3)n[nH]2)cc1Nc1nc2ccccc2n1-c1cc(N)ncn1 [N-(3-(1-(6-aminopyrimidin-4-yl)-1H-benzo[d]imidazol-2-ylamino)-4-methylphenyl)-3-cyclopropyl-1H-pyrazole-5-carboxamide] | 96 nM | 50 nM | 56 nM | 48 nM |
| Cc1cccc(C(=O)Nc2ccc(C)c(Nc3nc4ccccc4n3-c3cc(N)ncn3)c2)c1 [N-(3-(1-(6-aminopyrimidin-4-yl)-1H-benzo[d]imidazol-2-ylamino)-4-methylphenyl)-3-methylbenzamide] | 82 nM | 32 nM | 490 nM | 280 nM |
| Cc1ccc(NC(=O)c2ccc(C(C)(C)C)s2)cc1Nc1nc2ccccc2n1-c1cc(N)ncn1 [N-(3-(1-(6-aminopyrimidin-4-yl)-1H-benzo[d]imidazol-2-ylamino)-4-methylphenyl)-5-tert-butylthiophene-2-carboxamide] | 5 nM | 4 nM | 4 nM | 4 nM |
| COc1cc(-n2c(Nc3cc(NC(=O)c4cccc(C(F)(F)F)c4)ccc3C)nc3ccccc32)ncn1 [N-(3-(1-(6-methoxypyrimidin-4-yl)-1H-benzo[d]imidazol-2-ylamino)-4-methylphenyl)-3-(trifluoromethyl)benzamide] | > 10000 nM | > 10000 nM | > 10000 nM | > 10000 nM |
| Cc1ccc(NC(=O)c2cccc(C(F)(F)F)c2)cc1Nc1nc2ccccc2n1-c1cc(NC2CCN(C)CC2)ncn1 [N-(4-methyl-3-(1-(6-(1-methylpiperidin-4-ylamino)pyrimidin-4-yl)-1H-benzo[d]imidazol-2-ylamino)phenyl)-3-(trifluoromethyl)benzamide] | 1420 nM | 881 nM | 1380 nM | 1710 nM |
| Cc1ccc(NC(=O)c2cccc(C(F)(F)F)c2)cc1Nc1nc2ccccc2n1-c1cc(NCCN2CCN(C)CC2)ncn1 [N-(4-methyl-3-(1-(6-(2-(4-methylpiperazin-1-yl)ethylamino)pyrimidin-4-yl)-1H-benzo[d]imidazol-2-ylamino)phenyl)-3-(trifluoromethyl)benzamide] | 204 nM | 56 nM | 918 nM | 605 nM |
| Cc1ccc(NC(=O)c2cccc(C(F)(F)F)c2)cc1Nc1nc2ccccc2n1-c1cc(NCCc2ccccn2)ncn1 [N-(4-methyl-3-(1-(6-(2-(pyridin-2-yl)ethylamino)pyrimidin-4-yl)-1H-benzo[d]imidazol-2-ylamino)phenyl)-3-(trifluoromethyl)benzamide] | 259 nM | 171 nM | 524 nM | 549 nM |
